From article PMC12930396, “Positive modulators of N-methyl-D-aspartate receptor: structure–activity relationship study on steroidal C-17 and C-20 oxime ethers” (RSC Advances, 2026)
Entries after “also recorded” stand apart in the source; their conditions may differ.

Key:
[1] = in vitro; details: pH 7.4; for PAMPA permeability Retention (mass retention): 5 h, 100 µM; for Papp at 5 h, 100 µM: PAMPA
Procedure: Permeability was quantified using permeability coefficients (Pe) and mass retention, the latter representing the proportion of compound retained in the membrane.
Permeation experiments were conducted in polystyrene 96-well filter plates with PVDF membrane pre-coated with structured layers of phospholipids (Corning Gentest™) according to the manufacturer's instructions. Briefly, the plate was warmed to room temperature, and meanwhile, the solutions of the compounds were diluted from 10 mM DMSO stocks to TRIS–HCl buffer pH 7.4 to reach a 100 µM final concentration. The DMSO concentration in the samples was 1%. Then, 300 µL of these solutions were transferred into the donor (receiver) plate wells, and 200 µL of the (TRIS) buffer was added to the acceptor (filter) plate wells. The filter plate and receiver plate were assembled and incubated for 5 h on an orbital shaker (300 rpm). After this, the concentration of the tested substances in both the donor and acceptor compartments was determined with use of LC/MS. Liquid chromatography was performed using an ExionLC AD pump and autosampler from Sciex (Framingham, MA, USA). […] The mobile phase flow rate was 300 µL min^−1. The column Synergi Fusion-RP from Phenomenex (Torrance, CA, USA) was used and was kept at 40 °C during the analysis.

[2] = in vitro; details: pH 7.4; for Metabolic stability in rat liver microsomes: 1 h, 10 µM; for half-life at 10 µM: rat, microsomes
Procedure: The reactions were terminated by the addition of four volumes of ice-cold methanol, mixed vigorously, and left at −20 °C for 1h. After that, the samples were centrifuged and the supernatants were analysed by means of ECHO-MS® System (Sciex, Framingham, MA, USA). Zero time points were prepared by adding ice-cold methanol to the mixture of the compound with cofactors before the addition of microsomes. […] Intrinsic clearance (CLint) was calculated using the following formula: [drawing 4] where V is the incubation volume per milligram of microsomal protein (µL mg^−1) and t1/2 is the microsomal half-life.

[3] = target: T1, GluN1/GluN2B receptors (Rattus norvegicus, UniProt P35439+Q00960); assay: Patch-clamp: modulation of glutamate-induced currents of recombinant GluN1/GluN2B receptors expressed in HEK293 cells; format: cell-based; details: for h ± SEM (apparent Hill coefficient): concentration-response fit; for h ± SEM (apparent Hill coefficient) / EC50 / Emax: mean ± SEM; for EC50: half-maximal potentiation of currents evoked by 1 µM glutamate; for Emax: maximal potentiation of currents evoked by 1 µM glutamate and 30 µM glycine
T1 construct: expressed in transfected cells; host or cells: HEK293 cells (ATCC No. CRL-1573)
Procedure: To investigate the effect of compounds 11–23 on the activity of NMDARs, electrophysiological measurements were performed on HEK293 cells that were co-transfected with cDNAs containing genes encoding for the rat GluN1-1a and GluN2B subunits. The degree of modulation (E; potentiation/inhibition) for the newly synthesized compounds was determined using the following formula: [drawing 1] where Ie is the value of the current amplitude during glutamate and compound coapplication, and Ia is the current amplitude value for glutamate application. […] The results are presented as mean ± standard error of the mean (SEM), with n equal to the number of independent measurements. One-way analysis of variance (ANOVA) was used for multiple comparisons (unless otherwise stated, a value of P ≤ 0.05 was used for the determination of significance).
We have evaluated the relationship between oxime derivatives 11–23 and their modulatory effect on recombinant GluN1/GluN2B receptors. Due to the […] effect of neurosteroid-based PAMs at NMDARs[20,44]
HEK293 cells (American Type Culture Collection, ATCC No. CRL-1573, Rockville, MD, USA) were cultured in Opti-MEM I (Invitrogen, Carlsbad, CA, USA) supplemented with 5% fetal bovine serum (FBS; PAN Biotech, Aidenbach, Germany) at 37 °C in 5% CO2. 24 h before transfection, HEK293 cells were plated in 24-well plates at a density of 2 × 10^5 cells per well. The next day, the cells were transfected with cDNA encoding rat GluN1-1a (GluN1; GenBank accession number U08261)[56] and GluN2B (GenBank accession number M91562)[57] subunits (in the pCI-neo expression vector), along with green fluorescent protein (GFP; in the pQBI 25 vector, Takara, Tokyo, Japan). Briefly, equal amounts (200 ng) of cDNAs encoding GluN1-1a, GluN2B, and GFP were mixed with 0.6 µl of Matra-A reagent (IBA, Gottingen, Germany) in 50 µL of Opti-MEM I and added to confluent HEK293 cells cultured in 24-well plates. After trypsinization, the cells were resuspended in Opti-MEM I containing 1% FBS, supplemented with 20 mM MgCl2, 1 mM D,L-2-amino-5-phosphonovaleric acid, 3 mM kynurenic acid, and 1 µM ketamine, and plated on 30 mm glass coverslips coated with collagen and poly-L-lysine. Transfected cells were identified by GFP epifluorescence. Electrophysiology experiments were performed 24–48 h after transfection.
Whole-cell current recordings, voltage-clamped at a holding potential of −60 mV, were performed at room temperature using a patch-clamp amplifier (Axopatch 200B; Molecular Devices, Sunnyvale, CA, USA) after capacitance and series resistance (<10 MΩ) compensation (80–90%). NMDAR current responses were low-pass filtered at 2 kHz, digitally sampled at 5 kHz, and analysed using pClamp software (version 10.6; Molecular Devices). Patch pipettes (3–5 MΩ), pulled from borosilicate glass, were filled with an intracellular solution (ICS) containing (in mM): 15 CsCl, 10 BAPTA, 3 MgCl2, 1 CaCl2, 120 gluconic acid, 10 HEPES, and 2 ATP-Mg salt (pH adjusted to 7.2 with CsOH). The extracellular solution (ECS) contained (in mM): 160 NaCl, 2.5 KCl, 0.2 EDTA, 10 glucose, 10 HEPES, and 0.7 CaCl2 (pH adjusted to 7.3 with NaOH). NMDAR responses were induced by 1 µM glutamate and 30 µM glycine. 1% DMSO was present in all control and testing solutions. Solution applications were performed using a microprocessor-controlled multibarrel fast-perfusion system with a solution exchange rate around the cells of ∼10 ms.[58]

[4] = test system: GluN1/GluN2B receptors; details: cited from earlier work; for EC50: read-out: EC50, potentiation of GluN1/GluN2B receptor responses

T1 sequence (Q00960 27-1482, other chains not shown): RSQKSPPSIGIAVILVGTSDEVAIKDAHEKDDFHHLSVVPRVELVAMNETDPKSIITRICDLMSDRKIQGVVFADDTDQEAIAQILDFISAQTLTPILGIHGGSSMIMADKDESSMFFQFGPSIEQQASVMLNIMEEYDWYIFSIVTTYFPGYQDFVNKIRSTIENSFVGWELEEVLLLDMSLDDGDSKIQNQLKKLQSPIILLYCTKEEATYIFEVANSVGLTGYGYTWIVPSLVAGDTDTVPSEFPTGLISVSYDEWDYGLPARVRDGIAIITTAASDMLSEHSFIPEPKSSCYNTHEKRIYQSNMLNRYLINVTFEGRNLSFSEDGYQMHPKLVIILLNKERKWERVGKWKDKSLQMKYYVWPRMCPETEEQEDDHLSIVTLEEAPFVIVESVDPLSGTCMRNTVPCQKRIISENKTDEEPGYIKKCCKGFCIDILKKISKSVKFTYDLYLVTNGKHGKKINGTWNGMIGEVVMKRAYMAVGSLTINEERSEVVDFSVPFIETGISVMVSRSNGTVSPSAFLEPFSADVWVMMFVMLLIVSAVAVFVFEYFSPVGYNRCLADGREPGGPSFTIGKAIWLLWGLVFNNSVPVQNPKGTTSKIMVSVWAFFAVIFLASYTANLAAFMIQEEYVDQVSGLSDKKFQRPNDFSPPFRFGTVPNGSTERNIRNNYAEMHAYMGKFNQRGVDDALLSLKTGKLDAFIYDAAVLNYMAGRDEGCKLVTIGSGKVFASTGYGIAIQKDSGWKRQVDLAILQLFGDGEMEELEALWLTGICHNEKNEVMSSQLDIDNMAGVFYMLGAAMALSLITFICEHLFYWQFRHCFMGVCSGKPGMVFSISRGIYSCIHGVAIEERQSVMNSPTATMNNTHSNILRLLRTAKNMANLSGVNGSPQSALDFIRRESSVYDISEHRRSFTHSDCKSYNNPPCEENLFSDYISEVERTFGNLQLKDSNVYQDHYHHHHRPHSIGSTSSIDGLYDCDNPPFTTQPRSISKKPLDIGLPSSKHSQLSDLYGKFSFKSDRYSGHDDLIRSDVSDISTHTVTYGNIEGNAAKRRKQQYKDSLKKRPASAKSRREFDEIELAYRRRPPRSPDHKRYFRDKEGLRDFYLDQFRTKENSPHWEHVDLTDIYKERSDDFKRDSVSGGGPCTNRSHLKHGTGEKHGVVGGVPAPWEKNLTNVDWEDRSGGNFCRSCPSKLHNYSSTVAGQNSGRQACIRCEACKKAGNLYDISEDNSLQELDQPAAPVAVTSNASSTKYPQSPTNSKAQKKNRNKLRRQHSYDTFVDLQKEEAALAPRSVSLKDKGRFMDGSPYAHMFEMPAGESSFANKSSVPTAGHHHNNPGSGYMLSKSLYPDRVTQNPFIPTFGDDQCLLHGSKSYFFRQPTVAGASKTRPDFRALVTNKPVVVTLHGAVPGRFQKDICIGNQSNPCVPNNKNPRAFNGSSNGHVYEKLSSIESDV

Row | Structure (SMILES) | PAMPA permeability Retention (mass retention) [1] | half-life at 10 µM [2] | h ± SEM (apparent Hill coefficient) [3] | EC50 ([3]; HEK293) | Emax ([3]; HEK293) | Emax, potentiation of GluN1/GluN2B receptor responses [4] | EC50 [4] | other results
1 | C/C(=N\OCc1ccccc1)[C@H]1CCC2C3CC=C4C[C@@H](OC(=O)CCCC(=O)O)CC[C@]4(C)C3CC[C@@]21C (stereo partly drawn) [Compound 21, 20-Oxo-pregn-5-en-3β-yl hemiglutarate O-(phenylmethyl)oxime] | 95% | > 1 h | 1.7 ± 0.3 | 11.3 ± 2 µM | 403 ± 56% | – | – | Papp at 5 h, 100 µM [1]: 1.82 ×10⁻⁶ cm/s; Metabolic stability in rat liver microsomes [2]: no detectable metabolism after 60 min
2 | C[C@]12CC[C@H](OC(=O)CCCCCCCC(=O)O)CC1=CCC1C2CC[C@]2(C)C(=O)CCC12 (some centres unmarked) [Compound 9] | – | – | – | – | – | 226% | 32 µM | –
3 | CCCO/N=C(\C)[C@H]1CCC2C3CC=C4C[C@@H](OC(=O)CCCC(=O)O)CC[C@]4(C)C3CC[C@@]21C (stereo partly drawn) [Compound 18, 20-Oxo-pregn-5-en-3β-yl hemiglutarate O-propyloxime] | 100% | > 1 h | – | – | – | – | – | Modulatory profile at NMDARs ([3]; GluN1/GluN2B in HEK293): not identified as PAMs; also recorded: complex, concentration-dependent activity profile; inhibition at 3 µM ([3]; HEK293, at 3 µM compound, 1 µM glutamate, read-out: NAM effect (degree of inhibition)): 7%; PAM effect (degree of potentiation) ([3]; at 10 µM compound, 1 µM glutamate): 75 ± 21%; PAM effect (degree of potentiation) ([3]; at 30 µM compound, 1 µM glutamate): 108 ± 17%
4 | C/C(=N\OCCN1CCOCC1)[C@H]1CCC2C3CC=C4C[C@@H](OC(=O)CCCC(=O)O)CC[C@]4(C)C3CC[C@@]21C (stereo partly drawn) [Compound 13, 20-Oxo-pregn-5-en-3β-yl hemiglutarate O-(3-morpholinoethyl)oxime] | 95% | > 1 h | 2.8 ± 0.2 | 34.7 ± 4.2 µM | 111 ± 11% | – | – | –
5 | CC[C@@H](C)[C@H]1CCC2C3CC[C@@H]4C[C@H](OS(=O)(=O)O)CC[C@]4(C)C3CC[C@@]21C (some centres unmarked) [Compound 1] | – | – | – | – | – | – | – | IC50 ([4]; read-out: IC50, inhibition of currents of GluN1/GluN2B receptors): 0.09 µM
6 | C[C@]12CC[C@H](OC(=O)CCCCC(=O)O)CC1=CCC1C2CC[C@]2(C)C(=O)CCC12 (some centres unmarked) [Compound 6] | – | – | – | – | – | 180% | 108 µM | –
7 | C[C@]12CC[C@H](OC(=O)CCCCCCCCC(=O)O)CC1=CCC1C2CC[C@]2(C)C(=O)CCC12 (some centres unmarked) [Compound 10] | – | – | – | – | – | 165% | 16 µM | –
8 | C=CCO/N=C(\C)[C@H]1CCC2C3CC=C4C[C@@H](OC(=O)CCCC(=O)O)CC[C@]4(C)C3CC[C@@]21C (stereo partly drawn) [Compound 20, 20-Oxo-pregn-5-en-3β-yl hemiglutarate O-(2-propenyl)oxime] | 99% | > 1 h | 2.0 ± 0.2 | 12.6 ± 2.9 µM | 317 ± 43% | – | – | Papp at 5 h, 100 µM [1]: 7.24 ×10⁻⁶ cm/s; Metabolic stability in rat liver microsomes [2]: no detectable metabolism after 60 min
